{"source": "paper PMC7222207", "about": "“Characterization of a CholesteroNitrone (ISQ-201), a Novel Drug Candidate for the Treatment of Ischemic Stroke” (Antioxidants, 2020)", "key": {"[1]": {"tested_on": "lipid peroxidation and ROS levels", "design": "method as in PMID 26241908", "conditions": "preliminary results; cited from earlier work"}, "[2]": {"tested_on": "transient forebrain ischemia", "assay": "Global cerebral ischemia (4VO), neurological deficit score (NDS)", "type": "in vivo, male Wistar rats", "conditions": "evaluated at 5 days", "protocol": "Transient forebrain ischemia was induced in adult male Wistar rats (10–12 weeks, Charles River) by the standard four-vessel occlusion model (4VO) described previously. Briefly, both vertebral arteries were irreversibly occluded by electrocoagulation under anesthesia, with a mixture of atropine, ketamine, and diazepam (0.25, 62.5, and 5 mg/kg, respectively) delivered through intraperitoneal injection. After 24 h, ischemia was induced by carotid occlusion with atraumatic clips, for 15 min, and then the clips were removed from the carotid arteries to allow reperfusion. Body temperature was maintained at 37 °C during the surgical procedure. The animals were studied after 5 days of reperfusion (R5d) after which they were sacrificed. Sham control animals were prepared in the same way, without carotid occlusion. We performed a power analysis (http://www.biomath.info/power/ttest.htm) to determine the sample size. Significance level and statistical power were set at 0.05 and 0.8 (80%), respectively, which afforded a sample size of <6 subjects per group. […]\nNeurological deficits in rats subjected to global cerebral ischemia were blindly evaluated after 5 days of reperfusion (R5d). […]\nIn order to quantify potential functional impairments, the general state of the animals was assessed. […]"}, "[3]": {"tested_on": "transient forebrain ischemia", "assay": "Long-term behavioral tests in Y maze (exploration, spatial recognition, spatial memory)", "type": "in vivo, male Wistar rats", "conditions": "0.05 mg/kg iv at reperfusion onset, 11 weeks after ischemic reperfusion", "protocol": "For the long-term studies, animals were subjected to behavioral tests, in order to assess their spontaneous spatial alternation and spatial memory skills, as markers of neurological damage present in longer periods, after the surgical procedure. According to previous literature, we selected the Y maze, in which both the exploration activity (spatial recognition) and spatial memory were evaluated.\nFor the exploration activity and spatial recognition, control animals and ischemic animals treated with the vehicle or ISQ-201 were placed in the center of the maze and let to explore for 8 min. The total number of arms that the animal entered indistinctly (number of arm entries) and the times that the animal explored consecutively—the three different arms of the maze (number of alternations or triads)—were registered by an observer blind to the treatment.\nFor the assessment of spatial memory, the control animals and ischemic animals treated with the vehicle or ISQ-201 were placed into one of the arms of the Y maze (start arm) and were allowed to explore the maze with one of the arms closed for 10 min (training trial). After 1 h, the rats were returned to the Y maze by placing them in the start arm and allowing them to freely explore all three arms of the maze for 3 min. The arm of the first choice of entry, the new or old, was registered manually by an observer blind to the treatment."}, "[4]": {"tested_on": "transient middle cerebral artery occlusion", "assay": "Transient focal cerebral ischemia (tMCAO), grip strength test", "type": "in vivo, male C57BL/6 mice", "conditions": "mice, 0.05 mg/kg or 0.1 mg/kg ip at onset of reperfusion, 24 and 48 h after treatment", "protocol": "Transient occlusion of the distal branch of the middle cerebral artery (tMCAO) was induced in male C57BL/6 mice (9–11 weeks old, Charles River), as described previously. Mice were anesthetized with 4% isoflurane for induction and 1.5–2% isoflurane for maintenance (in 79% N2/21% O2). After drilling a small hole on the temporal bone at the level of the distal portion of the middle cerebral artery (MCA), the artery was compressed for 60 min, with a 30-G needle by using a micromanipulator. Body temperature was maintained between 36.5–37.5 °C and cerebral blood flow was monitored using laser-Doppler flowmetry to confirm MCA occlusion. Buprenorphine (0.05–0.1 mg/kg) was administered subcutaneously immediately before the procedure. A total of 33 mice were subjected to tMCAO, according to the study design. A power analysis was performed to determine the sample size (significance level set at 0.05, and the power set at 0.8 (80%)), which identified the need for 8 mice to be included in each experimental group. […]\nNeurobehavioral studies were performed to evaluate ischemic outcomes and monitor motor function after focal ischemia. […] A total of six trials were conducted for each test and the strength value (expressed in grams) was calculated as the mean of all six trials."}}, "data": [{"smiles": "CC(C)[C@H]1CC[C@H]2[C@@H]3CCC4=C/C(=[N+](\\C)[O-])CC[C@]4(C)[C@H]3CC[C@]12C", "note": "[ISQ-201]", "values": [{"measurement": "effect on lipid peroxidation and ROS levels", "setting": "[1]", "value": "decreased"}, {"measurement": "neurological deficit score (NDS) vs vehicle", "setting": "[2]; 0.05 mg/kg iv given after 48 h of reperfusion", "value": "could not improve"}, {"measurement": "neurological deficit score (NDS) vs vehicle", "setting": "[2]; 0.05 mg/kg iv given between 0 and 6 h of post-reperfusion", "value": "improvement"}, {"measurement": "spatial memory (new arm as first choice), Y maze", "setting": "[3]", "value": "recovery of values similar to the control group"}, {"measurement": "exploration activity (number of arm entries), Y maze", "setting": "[3]; vs control group", "value": "no significant differences with the control group"}, {"measurement": "spatial recognition (number of alternations or triads), Y maze", "setting": "[3]; vs control group", "value": "no significant differences"}, {"measurement": "motor deficit (grip strength) vs vehicle", "setting": "[4]", "value": "significant decrease"}]}]}
